Measurements as given in patent US4331597A, “Penicillin compounds” (Meiji Seika Kaisha, Ltd., priority 1979, dated 1982).
Values after ≈ are worked out from the molar mass of the structure shown. Structures can show the parent of a compound that is named as a salt.

What was measured:
Test in all cases: Minimum inhibitory concentration test, agar dilution method (plate)
Type in all cases: cell-based
[1] = tested on: Citrobacter freundii GN346 (CSase)
Protocol: (§1) Antimicrobial test (i.e., minimum inhibitory concentration test) on compounds obtained according to this invention was conducted according to the Japan chemotherapy method, using Apalcillin (PC-904) for comparison purposes.
(§2) Minimum Inhibitory Concentration(γ/ml)
(§3) in Agar Dilution Method (Plate)

Escherichia coli 255 = tested on: Escherichia coli 255
Protocol: as §1, §2, §3

Escherichia coli GN206 = tested on: Escherichia coli GN206
Protocol: as §1, §2, §3

[2] = tested on: Klebsiella pneumoniae GN69
Protocol: as §1, §2, §3

[3] = tested on: Proteus morganii 1510 (CSase); settings: Morganella morganii
Protocol: as §1, §2, §3

Proteus vulgaris OX19 = tested on: Proteus vulgaris OX19
Protocol: as §1, §2, §3

[4] = tested on: Pseudomonas aeruginosa E-2; settings: E2
Protocol: as §1, §2, §3

[5] = tested on: Pseudomonas aeruginosa M-0002; settings: M0002
Protocol: as §1, §2, §3

[6] = tested on: Pseudomonas capacia M-0501; settings: M0501
Protocol: as §1, §2, §3

[7] = tested on: Pseudomonas cepacia M-0513; settings: Burkholderia cepacia, M0513
Protocol: as §1, §2, §3

[8] = tested on: Pseudomonas maltophilia 602; settings: Stenotrophomonas maltophilia
Protocol: as §1, §2, §3

[9] = tested on: Serratia marcescens No. 1
Protocol: as §1, §2, §3

[10] = tested on: Serratia species GN629 (CSase)
Protocol: as §1, §2, §3

[11] = tested on: Staphylococcus aureus 209PJC-1; settings: 209PJC1
Protocol: as §1, §2, §3

[12] = tested on: Staphylococcus aureus Smiths-424; settings: SMITHS424
Protocol: as §1, §2, §3

[13] = tested on: Streptococcus faecalis ATCC6633; settings: Enterococcus faecalis
Protocol: as §1, §2, §3

MIC [1] [µg/mL] | MIC (Escherichia coli 255) [µg/mL] | MIC (Escherichia coli GN206) [µg/mL] | MIC [2] [µg/mL] | MIC [3] [µg/mL] | MIC (Proteus vulgaris OX19) [µg/mL] | MIC [4] [µg/mL] | MIC [5] [µg/mL] | MIC [6] [µg/mL] | MIC [7] [µg/mL] | MIC [8] [µg/mL] | MIC [9] [µg/mL] | MIC [10] [µg/mL] | MIC [11] [µg/mL] | MIC [12] [µg/mL] | MIC [13] [µg/mL] | Compound
6.25 | 12.5 | 3.13 | 25 | 100 | 0.39 | 3.13 | 0.78 | 12.5 | 12.5 | 12.5 | 0.78 | 6.25 | 0.39 | 0.39 | 3.13 | COc1ccc(-c2ccc(C(=O)N[C@@H](C(=O)N[C@@H]3C(=O)N4[C@@H]3SC(C)(C)[C@@H]4C(=O)O)c3ccc(O)cc3)c(=O)[nH]2)cc1OC [Example 1, sodium salt of 6-(3,4-dimethoxyphenyl)-1,2-dihydro-2-oxonicotinylamoxycillin]
1.56 (≈ 2.06 µM) | 6.25 (≈ 8.24 µM) | 1.56 (≈ 2.06 µM) | 25 (≈ 32.9 µM) | 50 (≈ 65.9 µM) | 0.39 (≈ 0.514 µM) | 6.25 (≈ 8.24 µM) | 3.13 (≈ 4.12 µM) | 3.13 (≈ 4.12 µM) | 3.13 (≈ 4.12 µM) | 25 (≈ 32.9 µM) | 1.56 (≈ 2.06 µM) | 6.25 (≈ 8.24 µM) | 0.39 (≈ 0.514 µM) | 0.2 (≈ 0.264 µM) | 3.13 (≈ 4.12 µM) | COc1ccc(COc2ccc(-c3ccc(C(=O)N[C@@H](C(=O)N[C@@H]4C(=O)N5[C@@H]4SC(C)(C)[C@@H]5C(=O)O)c4ccc(O)cc4)c(=O)[nH]3)cc2OC)cc1OC [Example 3, 6-[4-(3,4-dimethoxybenzyloxy)-3-methoxyphenyl]-1,2-dihydro-2-oxonicotinyl amoxycillin]
12.5 (≈ 24 µM) | 50 (≈ 95.9 µM) | 25 (≈ 47.9 µM) | 50 (≈ 95.9 µM) | 100 (≈ 192 µM) | 0.39 (≈ 0.748 µM) | 1.56 (≈ 2.99 µM) | 0.78 (≈ 1.5 µM) | 12.5 (≈ 24 µM) | 25 (≈ 47.9 µM) | 50 (≈ 95.9 µM) | 1.56 (≈ 2.99 µM) | 25 (≈ 47.9 µM) | 0.39 (≈ 0.748 µM) | 0.39 (≈ 0.748 µM) | 6.25 (≈ 12 µM) | CC1(C)S[C@@H]2[C@H](NC(=O)[C@H](NC(=O)c3cnc4cccnc4c3O)c3ccccc3)C(=O)N2[C@H]1C(=O)O [PC-904, reference compound]
